Reference: the NIST ThermoML archive (doi:10.1021/je060271a)

Conditions: 283.15 K, Liquid, Vibrating tube method

CCCC(=O)OCC(COC(=O)CCC)(COC(=O)CCC)COC(=O)CCC [pentaerythritol tetrabutyrate]
Conditions | mass density [kg/m3]
5069.8 kPa | 1062.1
5785 kPa | 1062.4
5790.3 kPa | 1062.5
5796.4 kPa | 1062.5
6791.4 kPa | 1063
7204.6 kPa | 1063.2
7259.3 kPa | 1063.3
7320.1 kPa | 1063.4
7411.4 kPa | 1063.4
7437.1 kPa | 1063.4
7462.9 kPa | 1063.3
7545.9 kPa | 1063.4
7572.6 kPa | 1063.5
7606 kPa | 1063.5
7632.9 kPa | 1063.5
7657.7 kPa | 1063.5
7681.7 kPa | 1063.5
7710.4 kPa | 1063.4
7734.6 kPa | 1063.6
8293.1 kPa | 1063.8
11358 kPa | 1065.7
11377 kPa | 1065.7
11399 kPa | 1065.7
11419 kPa | 1065.6
11438 kPa | 1065.6
11456 kPa | 1065.7
11667 kPa | 1065.7
11687 kPa | 1066
11708 kPa | 1065.9
11731 kPa | 1065.8
11751 kPa | 1065.9
11775 kPa | 1066
11795 kPa | 1066
11816 kPa | 1065.9
11836 kPa | 1065.9
11862 kPa | 1065.9
11882 kPa | 1065.9
11903 kPa | 1065.9
11928 kPa | 1066
11949 kPa | 1066
11995 kPa | 1065.9
12016 kPa | 1066
13152 kPa | 1066.7
13178 kPa | 1066.7
13234 kPa | 1066.6
13898 kPa | 1067.1
15509 kPa | 1068
15590 kPa | 1068
15620 kPa | 1068.1
15664 kPa | 1068.1
15701 kPa | 1068
15739 kPa | 1068
15784 kPa | 1068.2
15822 kPa | 1068.1
15860 kPa | 1068.2
15906 kPa | 1068.2
17727 kPa | 1069.2
17738 kPa | 1069.3
17748 kPa | 1069.2
17759 kPa | 1069.3
17769 kPa | 1069.2
17778 kPa | 1069.1
18091 kPa | 1069.4
18103 kPa | 1069.5
18112 kPa | 1069.4
18122 kPa | 1069.4
18135 kPa | 1069.5
18145 kPa | 1069.4
18166 kPa | 1069.5
18176 kPa | 1069.4
18264 kPa | 1069.5
18274 kPa | 1069.6
18296 kPa | 1069.4
18306 kPa | 1069.5
18318 kPa | 1069.6
18328 kPa | 1069.5
18338 kPa | 1069.5
18351 kPa | 1069.5
18864 kPa | 1069.8
18899 kPa | 1069.8
18956 kPa | 1069.9
18967 kPa | 1069.8
18980 kPa | 1069.6
18991 kPa | 1069.8
19143 kPa | 1069.9
19349 kPa | 1070.2
19360 kPa | 1070.1
19371 kPa | 1070.1
19383 kPa | 1070
19397 kPa | 1070.1
19419 kPa | 1070.1
19433 kPa | 1070.3
19458 kPa | 1070.2
19470 kPa | 1070.1
20345 kPa | 1070.6
20358 kPa | 1070.6
20371 kPa | 1070.7
20383 kPa | 1070.7
20398 kPa | 1070.7
20411 kPa | 1070.7
20426 kPa | 1070.8
20439 kPa | 1070.8
20452 kPa | 1070.6
20631 kPa | 1070.8
20647 kPa | 1070.9
20659 kPa | 1070.9
20673 kPa | 1070.8
20689 kPa | 1070.8
20702 kPa | 1070.8
20718 kPa | 1070.8
20731 kPa | 1070.8
20744 kPa | 1070.9
20757 kPa | 1070.9
20943 kPa | 1071
20960 kPa | 1071
20973 kPa | 1071
20987 kPa | 1071
21354 kPa | 1071.2
21371 kPa | 1071.2
21386 kPa | 1071.4
21583 kPa | 1071.3
21614 kPa | 1071.3
21629 kPa | 1071.5
21646 kPa | 1071.3
21661 kPa | 1071.2
21676 kPa | 1071.4
21691 kPa | 1071.4
21708 kPa | 1071.3
21738 kPa | 1071.4
21756 kPa | 1071.4
21770 kPa | 1071.4
21833 kPa | 1071.5
21848 kPa | 1071.5
21866 kPa | 1071.5
21881 kPa | 1071.5
21895 kPa | 1071.5
21910 kPa | 1071.5
21928 kPa | 1071.5
21943 kPa | 1071.7
21958 kPa | 1071.6
21976 kPa | 1071.6
21991 kPa | 1071.5
22008 kPa | 1071.6
22350 kPa | 1071.7
22366 kPa | 1071.8
22381 kPa | 1071.6
22400 kPa | 1071.8
22416 kPa | 1071.7
22432 kPa | 1071.7
22448 kPa | 1071.7
22467 kPa | 1071.7
22485 kPa | 1071.7
22500 kPa | 1071.8
22516 kPa | 1071.7
22535 kPa | 1071.9
22551 kPa | 1072
22567 kPa | 1071.8
22586 kPa | 1071.9
22602 kPa | 1071.9
22618 kPa | 1071.8
22634 kPa | 1071.9
22654 kPa | 1071.9
22670 kPa | 1072
22686 kPa | 1071.9
22706 kPa | 1071.9
22722 kPa | 1071.9
22738 kPa | 1071.9
22754 kPa | 1071.9
22774 kPa | 1071.9
22806 kPa | 1072
22894 kPa | 1072.1
22914 kPa | 1072
22930 kPa | 1072.1
22946 kPa | 1072
22964 kPa | 1072.1
22984 kPa | 1072
23000 kPa | 1072.1
23143 kPa | 1072.2
23160 kPa | 1072.1
23177 kPa | 1072.1
23197 kPa | 1072.2
23214 kPa | 1072.3
23231 kPa | 1072.3
23249 kPa | 1072.2
23286 kPa | 1072.2
23303 kPa | 1072.3
23324 kPa | 1072.2
23341 kPa | 1072.3
23358 kPa | 1072.2
23379 kPa | 1072.2
23396 kPa | 1072.3
23413 kPa | 1072.3
23731 kPa | 1072.5
23749 kPa | 1072.5
23882 kPa | 1072.6
23900 kPa | 1072.5
23921 kPa | 1072.6
23939 kPa | 1072.5
23958 kPa | 1072.7
23980 kPa | 1072.6
23998 kPa | 1072.5
24016 kPa | 1072.7
24272 kPa | 1072.8
24291 kPa | 1072.8
24313 kPa | 1072.8
24675 kPa | 1073
24694 kPa | 1073
24718 kPa | 1073
24737 kPa | 1073
24756 kPa | 1073
24780 kPa | 1073
24799 kPa | 1073.1
24819 kPa | 1073
24842 kPa | 1073.1
24862 kPa | 1073.1
24882 kPa | 1073.1
24902 kPa | 1073.1
24926 kPa | 1073.1
24945 kPa | 1073.1
24969 kPa | 1073.2
25008 kPa | 1073.3
25032 kPa | 1073.1
25052 kPa | 1073.1
25072 kPa | 1073.2
25092 kPa | 1073.2
25112 kPa | 1073.3
25136 kPa | 1073.2
25157 kPa | 1073.1
25182 kPa | 1073.3
25201 kPa | 1073.3
25225 kPa | 1073.2
25246 kPa | 1073.2
25266 kPa | 1073.3
25287 kPa | 1073.3
25311 kPa | 1073.3
25332 kPa | 1073.3
25353 kPa | 1073.3
25378 kPa | 1073.3
25399 kPa | 1073.4
25420 kPa | 1073.3
25441 kPa | 1073.3
25465 kPa | 1073.5
25486 kPa | 1073.3
25598 kPa | 1073.4
25620 kPa | 1073.5
25641 kPa | 1073.6
25666 kPa | 1073.5
25688 kPa | 1073.6
25710 kPa | 1073.5
25731 kPa | 1073.6
25757 kPa | 1073.5
25778 kPa | 1073.5
25799 kPa | 1073.5
25820 kPa | 1073.5
25846 kPa | 1073.6
25867 kPa | 1073.5
25889 kPa | 1073.7
25915 kPa | 1073.5
25936 kPa | 1073.6
25958 kPa | 1073.7
25985 kPa | 1073.7
26009 kPa | 1073.6
26031 kPa | 1073.7
26052 kPa | 1073.7
26074 kPa | 1073.8
26101 kPa | 1073.8
26122 kPa | 1073.6
26148 kPa | 1073.8
26170 kPa | 1073.8
26193 kPa | 1073.7
26219 kPa | 1073.8
26241 kPa | 1073.8
26264 kPa | 1073.8
26290 kPa | 1073.8
26313 kPa | 1073.8
26334 kPa | 1073.8
26361 kPa | 1073.8
26384 kPa | 1073.9
26406 kPa | 1073.8
26429 kPa | 1073.8
26456 kPa | 1074
26478 kPa | 1073.9
26501 kPa | 1073.8
26722 kPa | 1074
26740 kPa | 1074
26772 kPa | 1074.1
26796 kPa | 1074
26824 kPa | 1074.1
26848 kPa | 1074.1
26871 kPa | 1074.2
26899 kPa | 1074.2
26923 kPa | 1074
